Where a SMILES comes first, the peptide text is derived from it. [ ]: non-standard residue; d: D form. pGlu = O=C1CC[C@@H](C(=O)O)N1; dNle = CCCC[C@@H](N)C(=O)O; Nle = CCCC[C@H](N)C(=O)O; Aib = CC(C)(N)C(=O)O
Key:
[1] = Surrogate Activity-Based Plasma Stability Assay; type: in vitro ADME; details: rat, Surrogate activity-based Plasma stability t½
Experimental: Stability half-life was then calculated by the formula, t½=0.693÷k Surrogate Activity-Based Plasma Stability Assay: […]
2) Calculate slope of value above and […]

hAPJ = molecular target: T1, hAPJ (Homo sapiens, UniProt P35414); test: hAPJ Calcium Flux Assay; type: cell-based; details: Chem-5 APJ stable cells, FLIPR calcium flux stimulation; read-out: hAPJ Ca^2+ Flux EC50
T1 sequence (P35414 1-380): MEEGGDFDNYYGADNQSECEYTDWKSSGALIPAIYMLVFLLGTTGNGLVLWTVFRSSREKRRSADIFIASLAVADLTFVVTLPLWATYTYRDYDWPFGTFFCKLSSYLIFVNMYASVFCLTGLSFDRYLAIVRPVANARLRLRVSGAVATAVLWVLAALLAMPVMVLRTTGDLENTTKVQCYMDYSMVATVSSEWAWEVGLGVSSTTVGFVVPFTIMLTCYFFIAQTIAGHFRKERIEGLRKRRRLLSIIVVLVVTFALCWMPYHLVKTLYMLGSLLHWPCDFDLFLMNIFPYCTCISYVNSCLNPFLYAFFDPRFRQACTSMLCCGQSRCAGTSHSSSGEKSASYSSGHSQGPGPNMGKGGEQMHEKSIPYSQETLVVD
Experimental: Chem-5 APJ stable cells (Millipore # HTS068C) were plated in 384-well format with 10,000 cells/well in 25 ul growth media, then grown 24 hours in a 37° C. tissue culture incubator. One hour before the assay, 25 ul/well FLIPR Calcium 4 dye (Molecular Devices R8142) with 2.5 mM probenecid was added, and cells were incubated one hour in a 37° C. tissue culture incubator. Peptides were solubilized in HBSS, HEPES & 0.1% BSA buffer, and serially-diluted 10-fold, from 50 uM to […], in triplicate. FLIPR Tetra was used to add peptide to the cells with dye (1:5, for final peptide concentrations ranging from 10 uM to […]). FLIPR dye inside the cells emitted fluorescence after binding to calcium, while fluorescence from outside the cells was masked. Fluorescence was measured using 470-495 excitation and 515-575 emission wavelengths on the FLIPR Tetra. Readings were done for 3 minutes total, beginning 10 seconds before the peptide addition. Maximum-minimum values were calculated and plotted for each peptide concentration, and GraphPad prism software was used to calculate EC50 values at the curve inflection points, for calcium flux stimulation by peptides.

Compound | half-life [1] | EC50 (hAPJ)
CCCC[C@@H](NC(=O)[C@@H]1CCCN1C(=O)CNC(=O)[C@H](CCCCN)NC(=O)[C@H](Cc1c[nH]cn1)NC(=O)[C@@H](C)NC(=O)[C@H](CC(C)C)NC(=O)[C@H](CCCNC(=N)N)NC(=O)[C@@H]1CCCN1C(=O)[C@H](CCCNC(=N)N)NC(=O)[C@@H]1CCC(=O)N1)C(=O)N[C@@H](Cc1ccccc1)C(=O)O [Example 18, pE-R-P-R-L-a-H-K-G-P-nle-F-OH] ([pGlu]RPRL[dA]HKGP[dNle]F-OH) | 2.04 h | 66.5 nM
CCCC[C@@H](NC(=O)[C@@H]1CCCN1C(=O)CNC(=O)[C@H](CCCCN)NC(=O)[C@H](Cc1c[nH]cn1)NC(=O)[C@@H](C)NC(=O)[C@H](CC(C)C)NC(=O)[C@H](CCCNC(=N)N)NC(=O)[C@@H]1CCCN1C(=O)[C@H](CCCNC(=N)N)NC(=O)[C@@H]1CCC(=O)N1)C(=O)N[C@H](CCC(=O)O)C(=O)N[C@H](Cc1ccccc1)C(=O)O [Example 19, pE-R-P-R-L-a-H-K-G-P-nle-e-f-OH] ([pGlu]RPRL[dA]HKGP[dNle][dE][dF]-OH) | > 16.7 h | 169 nM
CCCC[C@@H](NC(=O)[C@@H]1CCCN1C(=O)CNC(=O)[C@H](CCCCN)NC(=O)C(C)(C)NC(=O)[C@@H](C)NC(=O)[C@H](CC(C)C)NC(=O)[C@H](CCCNC(=N)N)NC(=O)[C@@H]1CCCN1C(=O)[C@H](CCCNC(=N)N)NC(=O)[C@@H]1CCC(=O)N1)C(=O)N[C@H](C)C(=O)N[C@H](Cc1ccccc1)C(=O)O [Example 15, pE-R-P-R-L-a-Aib-K-G-P-nle-a-f-OH] ([pGlu]RPRL[dA][Aib]KGP[dNle][dA][dF]-OH) | > 16.7 h | 2.1 nM
CCCC[C@@H](NC(=O)[C@@H]1CCCN1C(=O)CNC(=O)[C@H](CCCCN)NC(=O)[C@H](Cc1c[nH]cn1)NC(=O)[C@@H](CC(=O)O)NC(=O)[C@H](CC(C)C)NC(=O)[C@H](CCCNC(=N)N)NC(=O)[C@@H]1CCCN1C(=O)[C@H](CCCNC(=N)N)NC(=O)[C@@H]1CCC(=O)N1)C(=O)N[C@H](C)C(=O)N[C@H](Cc1ccccc1)C(=O)O [Example 8, pE-R-P-R-L-d-H-K-G-P-nle-a-f-OH] ([pGlu]RPRL[dD]HKGP[dNle][dA][dF]-OH) | > 16.7 h | 7.7 nM
CCCC[C@@H](NC(=O)[C@@H]1CCCCN1C(=O)CNC(=O)[C@H](CCCCN)NC(=O)[C@H](Cc1c[nH]cn1)NC(=O)[C@@H](C)NC(=O)[C@H](CC(C)C)NC(=O)[C@H](CCCNC(=N)N)NC(=O)[C@@H]1CCCN1C(=O)[C@H](CCCNC(=N)N)NC(=O)[C@@H]1CCC(=O)N1)C(=O)N[C@H](C)C(=O)N[C@H](Cc1ccccc1)C(=O)O [Example 1, pE-R-P-R-L-a-H-K-G-Pip-nle-a-f-OH] | > 16.7 h | 2.3 nM
CCCC[C@@H](NC(=O)[C@@H]1CCCN1C(=O)CNC(=O)[C@H](CCCCN)NC(=O)C(C)(C)NC(=O)[C@H](CO)NC(=O)[C@H](CC(C)C)NC(=O)[C@H](CCCNC(=N)N)NC(=O)[C@@H]1CCCN1C(=O)[C@H](CCCNC(=N)N)NC(=O)[C@@H]1CCC(=O)N1)C(=O)N[C@H](C)C(=O)N[C@@H](Cc1ccccc1)C(=O)O [Example 37, pE-R-P-R-L-S-Aib-K-G-P-nle-a-F-OH] ([pGlu]RPRLS[Aib]KGP[dNle][dA]F-OH) | 8.72 h | 3.9 nM
CCCC[C@@H](NC(=O)[C@@H]1CCCN1C(=O)CNC(=O)[C@H](CCCCN)NC(=O)[C@H](Cc1c[nH]cn1)NC(=O)[C@@H](C)NC(=O)[C@H](CC(C)C)NC(=O)[C@H](CCCNC(=N)N)NC(=O)[C@@H]1C[C@@H](c2ccccc2)CN1C(=O)[C@H](CCCNC(=N)N)NC(=O)[C@@H]1CCC(=O)N1)C(=O)N[C@H](C)C(=O)N[C@H](Cc1ccccc1)C(=O)O [Example 9, pE-R-(trans-4-PhP)-R-L-a-H-K-G-P-nle-a-f-OH] | > 16.7 h | 9.9 nM
CCCC[C@@H](NC(=O)[C@@H]1CCCN1C(=O)CNC(=O)[C@H](CCCCN)NC(=O)[C@H](Cc1c[nH]cn1)NC(=O)[C@@H](C)NC(=O)[C@H](Cc1ccc(O)cc1)NC(=O)[C@H](CCCNC(=N)N)NC(=O)[C@@H]1CCCN1C(=O)[C@H](CCCNC(=N)N)NC(=O)[C@@H]1CCC(=O)N1)C(=O)N[C@H](C)C(=O)N[C@H](Cc1ccccc1)C(=O)O [Example 28, pE-R-P-R-Y-a-H-K-G-P-nle-a-f-OH] ([pGlu]RPRY[dA]HKGP[dNle][dA][dF]-OH) | > 16.7 h | 114 nM
CCCC[C@@H](NC(=O)[C@@H]1CCCN1C(=O)CNC(=O)[C@H](CCCCN)NC(=O)[C@@H](C)NC(=O)[C@@H](C)NC(=O)[C@H](CC(C)C)NC(=O)[C@H](CCCNC(=N)N)NC(=O)[C@@H]1CCCN1C(=O)[C@H](CCCNC(=N)N)NC(=O)[C@@H]1CCC(=O)N1)C(=O)N[C@H](C)C(=O)N[C@H](Cc1ccccc1)C(=O)O [Example 48, pE-R-P-R-L-a-a-K-G-P-nle-a-f-OH] ([pGlu]RPRL[dA][dA]KGP[dNle][dA][dF]-OH) | 4.13 h | 16.1 nM
CCCC[C@@H](NC(=O)[C@@H]1CCCN1C(=O)CNC(=O)[C@H](CCCCN)NC(=O)[C@@H](Cc1c[nH]cn1)NC(=O)[C@H](C)NC(=O)[C@H](CC(C)C)NC(=O)[C@H](CCCNC(=N)N)NC(=O)[C@@H]1CCCN1C(=O)[C@H](CCCNC(=N)N)NC(=O)[C@@H]1CCC(=O)N1)C(=O)N[C@H](C)C(=O)N[C@H](Cc1ccccc1)C(=O)O [Example 58, pE-R-P-R-L-A-h-K-G-P-nle-a-f-OH] | 3.8 h | 55.1 nM
CCCC[C@H](NC(=O)[C@@H]1CCCN1C(=O)CNC(=O)[C@H](CCCCN)NC(=O)C(C)(C)NC(=O)[C@H](CO)NC(=O)[C@H](CC(C)C)NC(=O)[C@H](CCCNC(=N)N)NC(=O)[C@@H]1CCCN1C(=O)[C@H](CCCNC(=N)N)NC(=O)[C@@H]1CCC(=O)N1)C(=O)N[C@H](C)C(=O)N[C@H](Cc1ccccc1)C(=O)O [Example 38, pE-R-P-R-L-S-Aib-K-G-P-Nle-a-f-OH] ([pGlu]RPRLS[Aib]KGP[Nle][dA][dF]-OH) | > 16.7 h | 3.3 nM
CCCC[C@H](NC(=O)[C@@H]1CCCN1C(=O)CNC(=O)[C@H](CCCCN)NC(=O)C(C)(C)NC(=O)[C@H](CO)NC(=O)[C@H](CC(C)C)NC(=O)[C@H](CCCNC(=N)N)NC(=O)[C@@H]1CCCN1C(=O)[C@H](CCCNC(=N)N)NC(=O)[C@@H]1CCC(=O)N1)C(=O)N[C@H](C)C(=O)N[C@@H](Cc1ccccc1)C(=O)O [Example 42, pE-R-P-R-L-S-Aib-K-G-P-Nle-a-F-OH] ([pGlu]RPRLS[Aib]KGP[Nle][dA]F-OH) | > 16.7 h | 2.4 nM
CCCC[C@@H](NC(=O)[C@@H]1CCCN1C(=O)CNC(=O)[C@H](CCCCN)NC(=O)[C@H](Cc1c[nH]cn1)NC(=O)[C@@H](C)NC(=O)[C@H](CC(C)C)NC(=O)[C@H](CCCNC(=N)N)NC(=O)[C@@H]1CCCN1C(=O)[C@H](CCCNC(=N)N)NC(=O)[C@@H]1CCC(=O)N1)C(=O)N[C@H](C)C(=O)N[C@H](Cc1ccccc1)C(N)=O [Example 33, pE-R-P-R-L-a-H-K-G-P-nle-a-f-NH2] | > 16.7 h | 14.8 nM
CCCC[C@@H](NC(=O)[C@@H]1CCCN1C(=O)CNC(=O)[C@H](CCCCN)NC(=O)[C@H](Cc1c[nH]cn1)NC(=O)[C@@H](C)NC(=O)[C@H](CC(C)C)NC(=O)[C@H](CCCNC(=N)N)NC(=O)[C@@H]1CCCN1C(=O)[C@H](CCCNC(=N)N)NC(=O)[C@@H]1CCC(=O)N1)C(=O)N1CCC(Oc2ccccc2)CC1 [Example 43, pE-R-P-R-L-a-H-K-G-P-nle-(4-Phenoxypiperidin-1-yl)] | 2.97 h | 2 nM
